According to patent US12180187B2, “1-phenyl-5-azinylpyrazolyl-3-oxyalkyl acids and their use for controlling unwanted plant growth” (BAYER AKTIENGESELLSCHAFT, priority 2019, dated 2024):

What was measured:
ALOMY [1] = assay: Pre-emergence action against ALOMY, 1280 g/ha; assay type: in vivo, Alopecurus myosuroides; settings: visual scoring after about 3 weeks vs untreated controls, 100% = plants have died, 0% = like control plants
Outline: (§1)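 In greenhouse pots of sandy loam, sown weed seeds were covered with soil and treated pre-emergence with the compound in water (600 L/ha, 0.5% additive). Efficacy was assessed visually as percent of untreated control after about 3 weeks.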

DIGSA [2] = assay: Pre-emergence action against DIGSA, 1280 g/ha; assay type: in vivo, Digitaria sanguinalis; settings: visual scoring after about 3 weeks vs untreated controls, 100% = plants have died, 0% = like control plants
Outline: as §1

ECHCG [3] = assay: Pre-emergence action against ECHCG, 1280 g/ha; assay type: in vivo, Echinochloa crus-galli; settings: visual scoring after about 3 weeks vs untreated controls, 100% = plants have died, 0% = like control plants
Outline: as §1

LOLRI [4] = assay: Pre-emergence action against LOLRI, 1280 g/ha; assay type: in vivo, Lolium rigidum; settings: visual scoring after about 3 weeks vs untreated controls, 100% = plants have died, 0% = like control plants
Outline: as §1

POAAN [5] = assay: Pre-emergence action against POAAN, 1280 g/ha; assay type: in vivo, Poa annua; settings: visual scoring after about 3 weeks vs untreated controls, 100% = plants have died, 0% = like control plants
Outline: as §1

SETVI [6] = assay: Pre-emergence action against SETVI, 1280 g/ha; assay type: in vivo, Setaria viridis; settings: visual scoring after about 3 weeks vs untreated controls, 100% = plants have died, 0% = like control plants
Outline: as §1

ABUTH [7] = assay: Pre-emergence action against ABUTH, 1280 g/ha; assay type: in vivo, Abutilon theophrasti; settings: scored visually after about 3 weeks vs untreated controls (100% = plants have died)
Excerpt: 1. Pre-Emergence Herbicidal Effect and Crop Plant Compatibility a) Seeds of mono- and dicotyledonous weed plants are placed in plastic pots in sandy loam soil (doubly sown with one species each of mono- or dicotyledonous weed plants per pot) and covered with soil. The compounds of the invention, formulated in the form of wettable powders (WP) or as emulsion concentrates (EC), are then applied onto the surface of the covering soil as aqueous suspension or emulsion with addition of 0.5% additive at a water application rate equivalent to 600 litres per hectare. After the treatment, the pots are placed in a greenhouse and kept under good growth conditions for the trial plants. After about 3 weeks, the effect of the preparations is scored visually in comparison with untreated controls as percentages. For example, 100% activity=the plants have died, 0% activity=like control plants. 1. Pre-Emergence Effectiveness Tables 1 to 12 below show the effects of selected compounds of the general formula (I) according to Tables 1 and 2 on various harmful plants and at an application rate corresponding to 1280 g/ha, which were obtained by the experimental procedure mentioned above.

AMARE [8] = assay: Pre-emergence action against AMARE, 1280 g/ha; assay type: in vivo, Amaranthus retroflexus; settings: scored visually after about 3 weeks vs untreated controls (100% = plants have died)
Outline: as §1

KCHSC [9] = assay: Pre-emergence action against KCHSC, 1280 g/ha; assay type: in vivo, Bassia scoparia; settings: scored visually after about 3 weeks vs untreated controls (100% = plants have died)
Outline: as §1

MATIN [10] = assay: Pre-emergence action against MATIN, 1280 g/ha; assay type: in vivo, Tripleurospermum inodorum (Matricaria inodora); settings: scored visually after about 3 weeks vs untreated controls (100% = plants have died)
Outline: as §1

STEME [11] = assay: Pre-emergence action against STEME, 1280 g/ha; assay type: in vivo, Stellaria media; settings: scored visually after about 3 weeks vs untreated controls (100% = plants have died)
Outline: as §1

VERPE [12] = assay: Pre-emergence action against VERPE, 1280 g/ha; assay type: in vivo, Veronica persica; settings: scored visually after about 3 weeks vs untreated controls (100% = plants have died)
Outline: as §1

ALOMY [13] = assay: Post-emergence action against ALOMY, 1.28 kg/ha; assay type: in vivo, Alopecurus myosuroides; settings: dosage 1280 g/ha, visual rating about 3 weeks after treatment vs untreated controls
Outline: (§2)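 Visual rating against untreated plants about 3 weeks after spraying gives % activity, where 0% means like controls and 100% means plants died. Plants were treated post-emergence at the one-leaf stage with compound formulated as wettable powder or emulsion concentrate, applied at 600 L water/ha plus 0.5% additive.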

DIGSA [14] = assay: Post-emergence action against DIGSA, 1.28 kg/ha; assay type: in vivo, Digitaria sanguinalis; settings: dosage 1280 g/ha, visual rating about 3 weeks after treatment vs untreated controls
Outline: as §2

ECHCG [15] = assay: Post-emergence action against ECHCG, 1.28 kg/ha; assay type: in vivo, Echinochloa crus-galli; settings: dosage 1280 g/ha, visual rating about 3 weeks after treatment vs untreated controls
Outline: as §2

POAAN [16] = assay: Post-emergence action against POAAN, 1.28 kg/ha; assay type: in vivo, Poa annua; settings: dosage 1280 g/ha, visual rating about 3 weeks after treatment vs untreated controls
Outline: as §2

ABUTH [17] = assay: Post-emergence action against ABUTH, 1.28 kg/ha; assay type: in vivo, Abutilon theophrasti; settings: dosage 1280 g/ha, visual rating about 3 weeks after treatment vs untreated controls (100% = plants died)
Outline: as §2

AMARE [18] = assay: Post-emergence action against AMARE, 1.28 kg/ha; assay type: in vivo, Amaranthus retroflexus; settings: dosage 1280 g/ha, visual rating about 3 weeks after treatment vs untreated controls (100% = plants died)
Outline: as §2

MATIN [19] = assay: Post-emergence action against MATIN, 1.28 kg/ha; assay type: in vivo, Tripleurospermum inodorum (Matricaria inodora); settings: dosage 1280 g/ha, visual rating about 3 weeks after treatment vs untreated controls (100% = plants died)
Outline: as §2

STEME [20] = assay: Post-emergence action against STEME, 1.28 kg/ha; assay type: in vivo, Stellaria media; settings: dosage 1280 g/ha, visual rating about 3 weeks after treatment vs untreated controls (100% = plants died)
Outline: as §2

VERPE [21] = assay: Post-emergence action against VERPE, 1.28 kg/ha; assay type: in vivo, Veronica persica; settings: dosage 1280 g/ha, visual rating about 3 weeks after treatment vs untreated controls (100% = plants died)
Outline: as §2

SETVI [22] = assay: Post-emergence action against SETVI, 1.28 kg/ha; assay type: in vivo, Setaria viridis; settings: dosage 1280 g/ha, visual rating about 3 weeks after treatment vs untreated controls
Outline: as §2

KCHSC [23] = assay: Post-emergence action against KCHSC, 1.28 kg/ha; assay type: in vivo, Bassia scoparia; settings: dosage 1280 g/ha, visual rating about 3 weeks after treatment vs untreated controls (100% = plants died)
Outline: as §2

LOLRI [24] = assay: Post-emergence action against LOLRI, 1.28 kg/ha; assay type: in vivo, Lolium rigidum; settings: dosage 1280 g/ha, visual rating about 3 weeks after treatment vs untreated controls
Outline: as §2

Compound	Pre-emergence action against DIGSA (DIGSA [2]) [%]	Pre-emergence action against ECHCG (ECHCG [3]) [%]	Pre-emergence action against LOLRI (LOLRI [4]) [%]	Pre-emergence action against POAAN (POAAN [5]) [%]	Pre-emergence action against SETVI (SETVI [6]) [%]	Pre-emergence action against ABUTH (ABUTH [7]) [%]	Pre-emergence action against AMARE (AMARE [8]) [%]	Pre-emergence action against KCHSC (KCHSC [9]) [%]	Pre-emergence action against MATIN (MATIN [10]) [%]	Pre-emergence action against STEME (STEME [11]) [%]	Pre-emergence action against VERPE (VERPE [12]) [%]	Post-emergence action against ALOMY (ALOMY [13]) [%]	Post-emergence action against ECHCG (ECHCG [15]) [%]	Post-emergence action against POAAN (POAAN [16]) [%]	Post-emergence action against ABUTH (ABUTH [17]) [%]	Post-emergence action against AMARE (AMARE [18]) [%]	Post-emergence action against MATIN (MATIN [19]) [%]	Post-emergence action against STEME (STEME [20]) [%]	Post-emergence action against VERPE (VERPE [21]) [%]	Post-emergence action against KCHSC (KCHSC [23]) [%]	other results
O=C(COc1nn(-c2ccccc2F)c(-c2ccc(F)nc2)c1Br)NS(=O)(=O)CC(F)(F)F [Example X-003]	100	100	100	100	100	90	100	90	100	100	100	100	90	100	90	90	100	90	90		Pre-emergence action against ALOMY (ALOMY [1]): 90%; Post-emergence action against DIGSA (DIGSA [14]): 100%
O=C(O)C1CCCN1C(=O)COc1nn(-c2ccccc2F)c(-c2cncc(F)c2)c1Br (centres unmarked) [Example X-039]	90	90	90	100	90	90	100	100	100	90	100	90	90	100	100	90	100	100	100	90	Pre-emergence action against ALOMY (ALOMY [1]): 90%; Post-emergence action against DIGSA (DIGSA [14]): 90%; Post-emergence action against SETVI (SETVI [22]): 100%
C=CCNC(=O)COc1nn(-c2ccccc2F)c(-c2cncnc2)c1Br [IX-001]	100	90	100	100	100	100	100	100	100	100	100		90		90		90	100	100	90	Post-emergence action against DIGSA (DIGSA [14]): 100%
O=C(O)COc1nn(-c2ccccc2F)c(-c2ccc(F)nc2)c1C(F)(F)F [VII-030]	90	90	100	100	100	90	100	90	90	100	90	100	100	100	90	90		100	90	90	
COC(=O)[C@@H](C)Oc1nn(-c2cc(F)ccc2F)c(-c2ccc(F)nc2)c1C#N [VII-099]	100	100	100	100	100	90	100	100	100	100	100	100		100	90	100	100	100	100	100	Pre-emergence action against ALOMY (ALOMY [1]): 90%; Post-emergence action against DIGSA (DIGSA [14]): 100%; Post-emergence action against LOLRI (LOLRI [24]): 100%
COC(=O)COc1nn(-c2c(F)cccc2F)c(-c2ccc(F)nc2)c1Br [VII-109]	100	100	100	100	100	90	100		100	100	100	100	100	100	100	100	100	100	100	90	Pre-emergence action against ALOMY (ALOMY [1]): 100%; Post-emergence action against DIGSA (DIGSA [14]): 100%; Post-emergence action against LOLRI (LOLRI [24]): 100%; Post-emergence action against SETVI (SETVI [22]): 100%
COC(=O)[C@@H](C)Oc1nn(-c2ccccc2F)c(-c2ccc(F)nc2)c1Br [VII-123-a]	100	100	100	100	100	90	100	100	100	100	100	100	100	100	90	90	90	100	90	90	Pre-emergence action against ALOMY (ALOMY [1]): 100%; Post-emergence action against LOLRI (LOLRI [24]): 100%; Post-emergence action against SETVI (SETVI [22]): 100%
